Results as given in ChEMBL document CHEMBL1201862, “PubChem BioAssay data set” (2004).
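1) Cells in 96-well plates. 2) Compound, 48 h, 5 concentrations. 3) Linear interpolation between surrounding doses. 4) Unreached endpoint = highest concentration. The concentration for 50% growth inhibition is given as GI50.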 Calls of active or inactive are those of the source. Cut-off read from the data, not from the text of the source: active = GI50 up to about 1.1 µM and inactive = higher.

Key:
Assay in all cases: NCI anticancer screen, dose series, 48 h
[1] = tested on: HOP-62
[2] = tested on: OVCAR-5
[3] = tested on: RPMI-8226
[4] = tested on: SF-539
[5] = tested on: HT-29
[6] = tested on: COLO 205
[7] = tested on: SNB-75
[8] = tested on: SF-295
[9] = tested on: SNB-19
[10] = tested on: U-251
[11] = tested on: A498
[12] = tested on: MOLT-4
[13] = tested on: SK-MEL-2
[14] = tested on: ACHN
[15] = tested on: 786-0
[16] = tested on: M14
[17] = tested on: TK-10

Row | Structure (SMILES) | GI50 [1] | GI50 [2] | GI50 [3] | GI50 [4] | GI50 [5] | GI50 [6] | GI50 [7] | GI50 [8] | GI50 [9] | GI50 [10] | GI50 [11] | GI50 [12] | GI50 [13] | GI50 [14] | GI50 [15] | GI50 [16] | GI50 [17]
1 | Cn1c(=O)[nH]c2nncnc2c1=O | 34.4 µM (inactive) | 186 µM (inactive) | 77.4 µM (inactive) | 64.9 µM (inactive) | 114 µM (inactive) | 69.2 µM (inactive) | 21 µM (inactive) | 103 µM (inactive) | 51.2 µM (inactive) | 28.7 µM (inactive) | 87.1 µM (inactive) | 181 µM (inactive) | 120 µM (inactive) |  |  |  | 
2 | O=C(Nc1ccc(Cl)cc1Cl)OC(Cn1cncn1)c1ccc(Cl)cc1Cl (centres undefined) | 19.5 µM (inactive) |  | 94.6 µM (inactive) | 17.9 µM (inactive) | 15.2 µM (inactive) | 17.2 µM (inactive) | 16.1 µM (inactive) | 17.4 µM (inactive) | 16.9 µM (inactive) | 16.1 µM (inactive) | 20 µM (inactive) | 31.6 µM (inactive) | 19.2 µM (inactive) | 15.5 µM (inactive) | 19 µM (inactive) | 17.9 µM (inactive) | 
3 | CSc1nc(CO)c(CO)n1C | > 100 µM (inactive) | > 100 µM (inactive) | > 100 µM (inactive) | > 100 µM (inactive) | > 100 µM (inactive) | > 100 µM (inactive) | > 100 µM (inactive) | > 100 µM (inactive) | > 100 µM (inactive) | > 100 µM (inactive) | > 100 µM (inactive) | > 100 µM (inactive) | > 100 µM (inactive) |  |  |  | 
4 | CCP(C)(C)=O | > 100 µM (inactive) | > 100 µM (inactive) | > 100 µM (inactive) | > 100 µM (inactive) | > 100 µM (inactive) | > 100 µM (inactive) | > 100 µM (inactive) | > 100 µM (inactive) | > 100 µM (inactive) | > 100 µM (inactive) | > 100 µM (inactive) | > 100 µM (inactive) | > 100 µM (inactive) | > 100 µM (inactive) | > 100 µM (inactive) | > 100 µM (inactive) | > 100 µM (inactive)
5 | N#CCc1ccc(/C(C#N)=C2/OC(=N)C(c3ccc(CC#N)cc3)C2=O)cc1 (centres undefined) | > 100 µM (inactive) | > 100 µM (inactive) | > 100 µM (inactive) | > 100 µM (inactive) | > 100 µM (inactive) | > 100 µM (inactive) | > 100 µM (inactive) | > 100 µM (inactive) | > 100 µM (inactive) |  | > 100 µM (inactive) | > 100 µM (inactive) | > 100 µM (inactive) | > 100 µM (inactive) | > 100 µM (inactive) | > 100 µM (inactive) | > 100 µM (inactive)
6 | COC(=O)Cc1cc(OC)c(OC)cc1Br | > 100 µM (inactive) | > 100 µM (inactive) | > 100 µM (inactive) |  | > 100 µM (inactive) | > 100 µM (inactive) | 66.4 µM (inactive) | > 100 µM (inactive) | > 100 µM (inactive) | > 100 µM (inactive) | > 100 µM (inactive) | > 100 µM (inactive) | > 100 µM (inactive) | > 100 µM (inactive) | > 100 µM (inactive) | > 100 µM (inactive) | > 100 µM (inactive)
7 | O=c1[c-](-c2ccccc2)[se]c(-c2ccccc2)[n+]1-c1ccccc1 |  |  | 29.1 µM (inactive) | 1.48 µM (inactive) | 23 µM (inactive) | 15.5 µM (inactive) | 8.15 µM (inactive) | 3.61 µM (inactive) | 7.52 µM (inactive) |  | 10 µM (inactive) | 18.8 µM (inactive) | 6.55 µM (inactive) |  | 10.5 µM (inactive) | 4.99 µM (inactive) | 8.32 µM (inactive)
8 | Cc1cc2c(cc1C)[n+]([O-])c(C(=O)C/C(=N/NC(=O)CC#N)C(=O)Nc1ccccc1C(F)(F)F)c(C)[n+]2[O-] | > 100 µM (inactive) | 62.2 µM (inactive) |  | 50.2 µM (inactive) | 49.3 µM (inactive) | 46.1 µM (inactive) | 36.6 µM (inactive) | 95.7 µM (inactive) | 75 µM (inactive) | 49.5 µM (inactive) | 52 µM (inactive) | 52 µM (inactive) | 39.5 µM (inactive) | 29.7 µM (inactive) | 52.8 µM (inactive) | 44.2 µM (inactive) | > 100 µM (inactive)
9 | COc1cc(OC)cc(-c2cc(O)c3cc4c(cc3n2)OCO4)c1 | 0.486 µM (active) | 4.35 µM (inactive) | 0.389 µM (active) | 0.173 µM (active) | 0.295 µM (active) | 0.192 µM (active) | 2.32 µM (inactive) | 0.2 µM (active) | 0.8 µM (active) | 0.221 µM (active) |  | 0.364 µM (active) | 0.165 µM (active) | 0.321 µM (active) | 0.348 µM (active) | 0.239 µM (active) | 1.74 µM (inactive)
10 | O=C1C=C(Nc2ccc(Br)cc2)c2ccccc2C1=O | 16.9 µM (inactive) | 20.8 µM (inactive) | 6.73 µM (inactive) | 16 µM (inactive) | 17.5 µM (inactive) | 17 µM (inactive) | 11 µM (inactive) | 15.8 µM (inactive) | 15.6 µM (inactive) | 4 µM (inactive) | 17.2 µM (inactive) | 10.9 µM (inactive) | 15.5 µM (inactive) | 4.75 µM (inactive) | 14.6 µM (inactive) | 14.9 µM (inactive) | 19.6 µM (inactive)
11 | CC(C)(C)c1cc(CCC(=O)Nc2ccc(Cl)cc2)nc(NC#N)n1 | > 100 µM (inactive) | > 100 µM (inactive) |  | > 100 µM (inactive) | > 100 µM (inactive) | > 100 µM (inactive) |  | > 100 µM (inactive) | > 100 µM (inactive) | > 100 µM (inactive) |  | > 100 µM (inactive) | > 100 µM (inactive) | > 100 µM (inactive) | > 100 µM (inactive) | > 100 µM (inactive) | > 100 µM (inactive)
12 | CC(=O)Nc1ccc(Cl)c(Cl)c1 | > 100 µM (inactive) |  | > 100 µM (inactive) | > 100 µM (inactive) | > 100 µM (inactive) | > 100 µM (inactive) | > 100 µM (inactive) | > 100 µM (inactive) | > 100 µM (inactive) | > 100 µM (inactive) |  | > 100 µM (inactive) |  | > 100 µM (inactive) | > 100 µM (inactive) | 40.4 µM (inactive) | > 100 µM (inactive)
13 | Cc1ccc(C)c(C(=O)CC2OC(O)C(Cl)C2Cl)c1 (centres undefined) | > 100 µM (inactive) | > 100 µM (inactive) | 12.4 µM (inactive) | 24 µM (inactive) | > 100 µM (inactive) | > 100 µM (inactive) | 52 µM (inactive) | > 100 µM (inactive) | > 100 µM (inactive) | > 100 µM (inactive) | > 100 µM (inactive) | 8.65 µM (inactive) | 84.5 µM (inactive) | 42.5 µM (inactive) |  | > 100 µM (inactive) | > 100 µM (inactive)
14 | COC(=O)C1=C(c2ccc3c(c2)OCO3)O[C@H](c2ccc3c(c2)OCO3)[C@H]1COC(C)=O | 58.5 µM (inactive) | 39.6 µM (inactive) | 60.4 µM (inactive) | 61.2 µM (inactive) | 36.2 µM (inactive) | 15.3 µM (inactive) | 49.5 µM (inactive) | 34.4 µM (inactive) |  | 53 µM (inactive) | 24.6 µM (inactive) | 35.2 µM (inactive) | 63 µM (inactive) | 29.4 µM (inactive) | 36.2 µM (inactive) | 32.6 µM (inactive) | 46.7 µM (inactive)
15 | Cc1cccc2nc3cccc(C(=O)NCCN(C)C)c3nc12 | 0.247 µM (active) | 1.61 µM (inactive) |  | 0.292 µM (active) | 0.507 µM (active) | 0.443 µM (active) | 1.08 µM (active) | 0.643 µM (active) | 0.525 µM (active) | 0.492 µM (active) | 0.266 µM (active) | 0.26 µM (active) | 1.27 µM (inactive) | 0.41 µM (active) | 0.647 µM (active) | 0.766 µM (active) | 0.433 µM (active)
16 | COc1ccc2c(c1O)-c1cc(O)cc3c1[C@@H](C2)N(C)CC3 | 32.9 µM (inactive) | 6.41 µM (inactive) | 75.3 µM (inactive) | 81.1 µM (inactive) | > 92.3 µM (inactive) | 50.7 µM (inactive) | 60.7 µM (inactive) | 72.3 µM (inactive) | 101 µM (inactive) | 10.7 µM (inactive) | 49.9 µM (inactive) | 66.1 µM (inactive) | 27.5 µM (inactive) |  |  |  | 
17 | c1ccc2c(c1)OCCc1cn[nH]c1-2 | > 61.7 µM (inactive) | > 100 µM (inactive) |  | > 100 µM (inactive) | > 100 µM (inactive) | > 100 µM (inactive) | 42 µM (inactive) | > 100 µM (inactive) | > 100 µM (inactive) | > 100 µM (inactive) | > 93.5 µM (inactive) | > 100 µM (inactive) | > 100 µM (inactive) |  |  |  | 
18 | CC(=O)c1c(P(=O)(OC(C)C)OC(C)C)nn(-c2ccc([N+](=O)[O-])cc2)c1C | > 100 µM (inactive) | > 100 µM (inactive) | > 100 µM (inactive) | > 100 µM (inactive) | > 100 µM (inactive) | > 100 µM (inactive) | > 10 µM (inactive) | > 100 µM (inactive) | > 100 µM (inactive) | > 100 µM (inactive) | > 100 µM (inactive) | > 100 µM (inactive) | > 100 µM (inactive) | > 100 µM (inactive) |  | > 100 µM (inactive) | > 100 µM (inactive)
19 | CCOC(=O)Nc1cc2nnc(-c3ccccc3)nc2c(N)n1 | 17.3 µM (inactive) | 23.1 µM (inactive) | 24.3 µM (inactive) | 18.4 µM (inactive) | 6.07 µM (inactive) | 2.73 µM (inactive) | 14.9 µM (inactive) | 3.52 µM (inactive) | 32.1 µM (inactive) | 30.5 µM (inactive) |  |  | 11.4 µM (inactive) | 5.7 µM (inactive) | 10.4 µM (inactive) | 4.06 µM (inactive) | 37.5 µM (inactive)
